“Also recorded” adds a separate entry of the source.
Legend:
Format in all cases: physicochemical
[1] = Deliquescence of salts/co-crystals during exposure to 75% RH; conditions: ambient temperature, 3 day exposure; for Observation (deliquescence): visual
Description: The salts identified from the salt/co-crystal screen of Compound I (see section 4 above) were assessed visually for deliquescence during exposure to 75% RH at ambient temperature (Table 5). […] The materials from these experiments were recovered and re-analyzed by XRPD to determine if changes in solid form occurred.

[2] = XRPD analysis of remaining solids from aqueous solubility assessments; conditions: solids recovered from mother liquor of aqueous solubility assessment
Description: Compound I ethylenediamine A+B disproportionated, as peaks similar to those observed for Compound I free acid Material C were observed.

[3] = Approximate aqueous solubility of salts/co-crystals (visual, solvent addition method); conditions: water; for solubility: estimated visually, solvent addition method
Description: (§1) A weighed sample was treated with aliquots of the test solvent at room temperature. The mixture was sonicated between additions to facilitate dissolution. Complete dissolution of the test material was determined by visual inspection. Solubility was estimated based on the total solvent used to provide complete dissolution. Some samples were then heated and observed visually for complete dissolution. The actual solubility may be greater than the value calculated because of the use of solvent aliquots that were too large or due to a slow rate of dissolution. […] If complete dissolution was achieved as a result of only one aliquot addition, the solubility is expressed as “greater than.”

[4] = Stability at elevated temperatures (XRPD, HPLC); conditions: for HPLC: after storage at 60 ° C. (time point not given)
Description: The stability of Compound I sodium Patterns A, C, and D and Form B, at about 60° C. was evaluated. These forms were weighed into vials covered with a Kimwipe tissue and stored in an oven at 60° C. and ambient pressure. After three days and ten days of exposure, the solids were analyzed by XRPD to check for form conversion. […].

[5] = Slurry experiments (form stability); conditions: for relative stability of the form (in words): at the conditions evaluated
Description: Solutions were prepared by adding enough solids to a given solvent so that excess solids were present. The mixture was then agitated in a sealed vial at either ambient or an elevated temperature. After a given amount of time, the solids were isolated for analysis.
The formation and stability of solid forms of the sodium salt of Compound I was further evaluated via slurry experiments. The slurries were formed by combining Compound I sodium Pattern A and a solvent, and allowing the slurry to equilibrate at room temperature. If a free flowing slurry was not achieved, an additional amount of the respective solvent was added before the room temperature equilibration step. All slurries were isolated via centrifuge filtration after five days and twelve days of equilibration. The solids were analyzed by XRPD to check for pattern conversion (Table 13).

[6] = Dynamic vapor sorption/desorption (DVS)
Description: Moisture sorption/desorption data were collected on a VTI SGA-100 Vapor Sorption Analyzer. NaCl and PVP were used as calibration standards. Samples were not dried prior to analysis. Sorption and desorption data were collected over a range from 5% to 95% RH at 10% RH increments under a nitrogen purge. The equilibrium criterion used for analysis was less than 0.0100% weight change in 5 minutes with a maximum equilibration time of 3 hours. Data were not corrected for the initial moisture content of the samples.

[7] = Water activity interconversion slurries; conditions: for water activity at which the form is stable / favored: competitive water activity slurries
Description: The resulting solid phase was characterized by XRPD (Table 16). The experiments establish the physically stable form at various aw.
Water activity is related to relative humidity in that RH %=aw×100. Therefore, it is possible to directly relate the stability of an anhydrous/hydrate system in slurry experiments to solid state stability. Slurry technique at controlled water activities provides an accurate method of rapidly predicting the physically stable form in anhydrous/hydrate systems. This method is particularly valuable when relatively slow kinetics of conversion in the solid state prevents reaching true equilibrium in a reasonable timeframe, since solvent-mediated transformation accelerates the conversion process.

[8] = Solubility of Compound I sodium salt forms in solvents and binary solvent systems
Description: as §1

[9] = Stability at elevated temperatures (XRPD, HPLC)
[10] = Competitive slurry experiments
Description: Competitive slurry experiments were also conducted to evaluate form stability of the solid forms of the sodium salt of Compound I. Slurries were prepared by combining Compound I sodium Pattern A, Form B, Pattern C and Pattern D with a solvent, allowing the slurry to equilibrate with stirring at room temperature. The slurries were analyzed at three day and ten day time points, filtered, and analyzed by XRPD (Table 14).

[11] = Physical stability on drying, ambient exposure or heating
[12] = Approximate aqueous solubility of salts/co-crystals (visual, solvent addition method); conditions: water, thermodynamic from solid, free acid solids retained from filtered aqueous phase, portion rinsed with water, read-out: solubility observed
[13] = listed as Ethylenediamine B + A

SMILES: O=C(O)c1cc(-c2ccc(OC3CC3)c(Cl)c2)ncn1 [Compound I ethylenediamine Materials A+B, 6-(3-chloro-4-cyclopropoxyphenyl)pyrimidine-4-carboxylic acid]
- Observation (deliquescence) [1]: no deliquescence
- Result (XRPD of remaining solids) ([2]; listed as Compound I ethylenediamine A+B): disproportionated
- Result (XRPD of remaining solids) [2, 13]: Ethylenediamine B + Free Acid C
- aqueous solubility (in words) [3]: suitable aqueous solubility
- solubility [3, 13]: <10000 µg/mL

SMILES: O=C(O)c1cc(-c2ccc(OC3CC3)c(Cl)c2)ncn1 [Compound I potassium Material A, 6-(3-chloro-4-cyclopropoxyphenyl)pyrimidine-4-carboxylic acid]
- Observation (deliquescence) [1]: no deliquescence
- Result (XRPD of remaining solids) [2]: converted to a new material
- Result (XRPD of remaining solids) ([2]; listed as Potassium A): broad reflections
- aqueous solubility (in words) [3]: suitable aqueous solubility
- solubility ([3]; listed as Potassium A): <4000 µg/mL

SMILES: O=C(O)c1cc(-c2ccc(OC3CC3)c(Cl)c2)ncn1 [Compound I sodium Form B, 6-(3-chloro-4-cyclopropoxyphenyl)pyrimidine-4-carboxylic acid]
- chemical and physical form changes after storing at elevated temperatures ([4]; about 60° C. and about 78° C.): No chemical and physical form changes were observed
- HPLC [4]: >99.9 % AUC
- stability in slurry (in words) ([5]; IPA and acetone): stable for about at least seven days
- relative stability of the form (in words) [5]: predominant and most thermodynamically stable form; also recorded: most thermodynamically stable anhydrate form
- hygroscopicity by DVS analysis (in words) [6]: hygroscopic
- DVS weight loss upon equilibration at about 5% RH ([6]; about 5% RH): about 0.03%
- material recovered from the DVS analysis compared with starting material by XRPD ([6]; after DVS): substantially the same as the starting material
- DVS weight gain ([6]; from about 5 to about 95% RH): ~5.39%
- DVS weight loss ([6]; from about 95% to about 5% RH): ~5.14%
- gain observed by DVS analysis ([6]; sorption cycle): ~5 wt %
- Result (XRPD after exposure) ([1]; listed as Sodium B): Sodium B
- Observation (deliquescence) [1]: no deliquescence
- Result (XRPD of remaining solids) [2]: remained unchanged by XRPD
- Result (XRPD of remaining solids) ([2]; listed as Sodium B): Sodium B
- aqueous solubility (in words) [3]: desirable aqueous solubility; also recorded: good aqueous solubility
- solubility [3]: 4000 µg/mL
- Results (XRPD form) ([7]; 0.33 aw, 16:84 H2O/DMF, 6 days): Form B
- Results (XRPD form) ([7]; 0.39 aw, 15:85 H2O/MeOH, 6 days): Form B
- Results (XRPD form) ([7]; 0.50 aw, 30:70 H2O/DMF, 6 days): Form B
- Results (XRPD form) ([7]; 0.58 aw, 6:94 H2O/Acetone, 6 days): Form B
- Results (XRPD form) ([7]; 0.70 aw, 50:50 H2O/DMF, 6 days): Form B
- Results (XRPD form) ([7]; 0.86 aw, 70:30 H2O/MeOH, 6 days): Form B
- Results (XRPD form) ([7]; 0.91 aw, 50:50 H2O/Acetone, 1 day): Form E
- Results (XRPD form) ([7]; 0.98 aw, 90:10 H2O/Acetone, 6 days): Form E
- water activity at which the form is stable / favored [7]: ≤ 0.86 aw
- solubility ([8]; Methanol, ambient): 6 mg/mL loading
- solubility ([8]; Water, ambient): 2 mg/mL loading
- solubility ([8]; organic solvent or mixture, thermodynamic from solid, Acetone, 55° C., read-out: Solubility): < 2000 µg/mL
- solubility ([8]; organic solvent or mixture, thermodynamic from solid, Acetone, ambient, read-out: Solubility): < 2000 µg/mL
- solubility ([8]; organic solvent or mixture, thermodynamic from solid, Acetone/water, 94:6 v/v, 55° C., read-out: Solubility): < 2000 µg/mL
- solubility ([8]; organic solvent or mixture, thermodynamic from solid, Acetone/water, 94:6 v/v, ambient, read-out: Solubility): < 2000 µg/mL
- solubility ([8]; organic solvent or mixture, thermodynamic from solid, Acetonitrile, 55° C., read-out: Solubility): < 2000 µg/mL
- solubility ([8]; organic solvent or mixture, thermodynamic from solid, Acetonitrile, ambient, read-out: Solubility): < 2000 µg/mL
- solubility ([8]; organic solvent or mixture, thermodynamic from solid, Acetonitrile/water, 83:17 v/v, ambient, read-out: Solubility): 2000 µg/mL
- solubility ([8]; organic solvent or mixture, thermodynamic from solid, Ethanol, 55° C., read-out: Solubility): < 2000 µg/mL
- solubility ([8]; organic solvent or mixture, thermodynamic from solid, Ethanol, ambient, read-out: Solubility): < 2000 µg/mL
- solubility ([8]; organic solvent or mixture, thermodynamic from solid, Ethanol/water, 88:12 v/v, 55° C., read-out: Solubility): ~2000 µg/mL
- solubility ([8]; organic solvent or mixture, thermodynamic from solid, Ethanol/water, 88:12 v/v, ambient, read-out: Solubility): ~2000 µg/mL
- solubility ([8]; organic solvent or mixture, thermodynamic from solid, Isopropanol, 55° C., read-out: Solubility): < 2000 µg/mL
- solubility ([8]; organic solvent or mixture, thermodynamic from solid, Isopropanol, ambient, read-out: Solubility): < 2000 µg/mL
- solubility ([8]; organic solvent or mixture, thermodynamic from solid, Isopropanol/water, 91:9 v/v, 55° C., read-out: Solubility): < 2000 µg/mL
- solubility ([8]; organic solvent or mixture, thermodynamic from solid, Isopropanol/water, 91:9 v/v, ambient, read-out: Solubility): < 2000 µg/mL
- solubility ([8]; thermodynamic from solid, Water, ambient, read-out: Solubility): ≥ 6000 µg/mL

SMILES: O=C(O)c1cc(-c2ccc(OC3CC3)c(Cl)c2)ncn1 [Compound I sodium Form E, 6-(3-chloro-4-cyclopropoxyphenyl)pyrimidine-4-carboxylic acid]
- Results (XRPD form) ([9]; 65° C., after 20 min and after 50 min): Form B
- Results (XRPD form) ([9]; 78° C., 18 days): Form B
- Results (XRPD form) ([9]; 205° C., briefly): Form B + peaks
- Results (XRPD form) ([9]; under N2: heat to 175° C. then cooled to 150° C., held for 10 minutes): Form B + peaks
- form conversion in competitive slurry ([10]; acetone and water): converted to Compound I sodium Form B
- water activity at which the form is stable / favored [7]: ≥ 0.91 aw

SMILES: O=C(O)c1cc(-c2ccc(OC3CC3)c(Cl)c2)ncn1 [Compound I sodium Pattern D, 6-(3-chloro-4-cyclopropoxyphenyl)pyrimidine-4-carboxylic acid]
- chemical and physical form changes after storing at elevated temperature ([4]; about 60° C.): No chemical and physical form changes were observed
- HPLC [4]: >99.9 % AUC
- form conversion in slurry / trituration ([5]; acetone and/or isopropanol (trituration, single form or competitive slurry)): converted to Compound I sodium Form B
- relative stability of the form (in words) [5]: not stable
- form conversion in competitive slurry ([10]; water): Compound I sodium Form B

SMILES: O=C(O)c1cc(-c2ccc(OC3CC3)c(Cl)c2)ncn1 [Compound I sodium Pattern F, 6-(3-chloro-4-cyclopropoxyphenyl)pyrimidine-4-carboxylic acid]
- effect of exposure to ambient ([11]; ambient for about 1 day): become disordered

SMILES: O=C(O)c1cc(-c2ccc(OC3CC3)c(Cl)c2)ncn1 [Compound I sodium amorphous, 6-(3-chloro-4-cyclopropoxyphenyl)pyrimidine-4-carboxylic acid]
- form conversion on heating ([11]; heated to about 150° C.): converts to Compound I sodium Form B

SMILES: O=C(O)c1cc(-c2ccc(OC3CC3)c(Cl)c2)ncn1 [Compound I, 6-(3-chloro-4-cyclopropoxyphenyl)pyrimidine-4-carboxylic acid]
- solubility [12]: < 4000 µg/mL

— US11173156B2, “Solid forms of a kynurenine-3-monooxygenase inhibitor” (CHDI Foundation, Inc., priority 2019, dated 2021)
